# pIC50: −log10 of the molar value.
# Assays:
# [1] = target: T1, wild-type human ALK protein (cytoplasmic domain, amino acid 1058-1620) (Homo sapiens, UniProt Q9UM73); experiment: Wild-type ALK kinase inhibition, Lance TR-FRET assay; format: biochemical; settings: Table 4; target not given; Cpd. No. 5 value equals WT ALK IC50 of Table 5; read-out: Inhibitory activity
# T1 construct: The cytoplasmic domain (amino acid 1058-1620) of wild-type human ALK protein; purchased Carna Biosciences, Inc (Japan)
# Method: The cytoplasmic domain (amino acid 1058-1620) of wild-type human ALK protein expressed as N-terminal GST-fusion protein was purchased from Carna Biosciences, Inc (Japan). Mutated ALK proteins were expressed in SF9 insect cells with N-terminal tags cleaved after purification. Kinase activities of all enzymes were assessed using a Lance® TR-FRET assay kit from Perkin Elmer Life Sciences (Waltham, Mass.). 2.5 μL of compound solution and 5 μL of protein solution were added into a black low volume 384 well microtiter plate which was incubated for 30 minutes with gentle shaking at room temperature, followed by adding 2.5 μL of fluorescently labeled peptide substrate (ULight™-IRS-1 (Tyr983) Peptide) and ATP mixture solution. The kinase reaction was performed in 50 mM HEPES (pH 7.5) with 1 mM EGTA, 1 mM MgCl2, and 2 mM DTT, 0.01% Tween-20 added right before the assay. Final concentrations of ATP, substrates, and DMSO were 100 μM, 20 nM, and 0.5%, respectively. […] Final ALK concentrations were 1 nM, 1 nM, InM, 128 nM, 2 nM, and 4 nM for wild-type, F1174L, L1196M, S1206Y, G1269A, and G1202R, respectively. The reaction was allowed to perform for 90 minutes in dark with gentle shaking at room temperature after which 10 μL of 20 mM EDTA and 2 nM Eu-W1024 anti-phosphotyrosine antibody (PT66) mixture solution in the detection buffer from the manufacturer was added to terminate the reaction and detect the phosphorylation of the peptide substrate. The final mixture was incubated in the dark for 1 hour before the plate was read on a Tecan Infinite M-1000 multi-mode plate reader (Tecan, Durham N.C.) with an excitation wavelength of 320 nm. Emission intensities were measured at both 620 and 665 nm with the intensity ratio between 665 and 620 nm corresponding to the peptide substrate phosphorylation. IC50 values of inhibitors were obtained by fitting the ratio of 665/620 nm vs inhibitor concentrations in a sigmoidal dose-response curve (variable slope) with a non-linear regression.
# H3122 cells (EML4-ALK) = experiment: Cell growth inhibition assay (WST-8), H3122; format: cell-based; settings: Homo sapiens, NCI-H3122, read-out: H3122 (nM) (EML4-ALK), 50% of cell growth inhibition (IC50), WST-8, versus DMSO control
# Method: (§1) H3122 and Kappas-299 cells were purchased from American Type Culture Collection (Manassas, Va., USA) and were used within 2 months after initiating from original stocks. All cell lines were cultured as recommended. For cell growth inhibition assay, cells were treated with different concentrations of the tested compounds, diluted from stock to culture media containing a 0.2% DMSO as the final concentration. Cell viability was determined using the WST-8 cell proliferation assay kit (Dojindo Molecular Technologies) according to manufacturer's instructions. Three independent experiments in triplicates were performed.
# [2] = system: Kappas-299 cells (NPM-ALK); experiment: Cell growth inhibition assay (WST-8), Kappas-299; format: cell-based; settings: read-out: Kappas-299 (nM) (NPM-ALK), 50% of cell growth inhibition (IC50), WST-8, versus DMSO control
# Method: as §1
# [3] = Pharmacokinetics in SD rats; format: in vivo; settings: 10 mg/kg, Table 8 (SD rats), PO 10 mg/kg
# Method: Routine pharmacokinetics studies were performed for Cpd. No. 5 in SD rats and beagle dogs.
# [4] = system: Human lymphoma cells, KARPAS 299 xenograft; experiment: KARPAS 299 xenograft tumor growth in SCID mice; format: in vivo; settings: given orally, once daily for 3 weeks, FIG. 1
# Method: Cpd. Nos. 5 and 6 were dissolved in a solution of 98% PEG200: 2% TPGS (Sigma).
# Human lymphoma cells, KARPAS 299 were maintained at 37° C., 95% air, 5% carbon dioxide in RPMI 1640 medium supplemented with 10% Fetal Bovine Serum, 100 units/ml of penicillin and 100 units/ml of streptomycin (GIBCO™, Invitrogen Corp.) and passaged twice weekly.
# Tumor cells for xenografts were washed twice in PBS, and re-suspended in an ice cold mixture of 1:1 PBS and Matrigel (BD Biosciences, Invitrogen Corp.) for a final Matrigel protein concentration of 5 mg/ml. Cells at 5×10^6 cells in 0.1 ml were injected subcutaneously (s.c.) into the flank region of each mouse. All tumors were inoculated into SCID mice (strain:236 C.B-17 SCID, Charles River).
# The size of tumors growing in the mice was measured in two dimensions using calipers. Tumor volume (mm^3)=(AxB^2)/2 where A and B are the tumor length and width (in mm), respectively. During treatment, tumor volume and body weight were measured three times a week. After the treatment was stopped, tumor volume and body weight was measured at least once a week.
# Tumors were not allowed to exceed 10% of the animal's total body weight. If an animal had two or more tumors the total weight of all tumors were not allowed to exceed 10% of the animal's total body weight. […]
# T1 sequence (Q9UM73 1058-1620): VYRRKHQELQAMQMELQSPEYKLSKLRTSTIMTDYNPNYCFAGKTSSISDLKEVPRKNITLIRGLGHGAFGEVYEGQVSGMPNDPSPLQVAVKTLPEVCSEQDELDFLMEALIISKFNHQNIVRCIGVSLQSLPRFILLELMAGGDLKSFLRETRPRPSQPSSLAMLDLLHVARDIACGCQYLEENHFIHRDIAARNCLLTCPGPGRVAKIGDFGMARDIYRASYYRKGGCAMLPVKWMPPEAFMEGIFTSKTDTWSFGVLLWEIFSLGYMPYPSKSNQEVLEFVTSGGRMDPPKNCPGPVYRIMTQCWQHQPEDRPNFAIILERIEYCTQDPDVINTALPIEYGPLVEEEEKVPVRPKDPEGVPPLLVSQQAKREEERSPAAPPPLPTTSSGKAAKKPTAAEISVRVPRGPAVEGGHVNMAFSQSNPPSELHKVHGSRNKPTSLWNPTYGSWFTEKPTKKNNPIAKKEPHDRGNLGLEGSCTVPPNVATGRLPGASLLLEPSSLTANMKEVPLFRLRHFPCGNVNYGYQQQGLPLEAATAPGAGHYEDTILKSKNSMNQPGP
SMILES,pIC50 [1],IC50 (H3122 cells (EML4-ALK)),IC50 [2],also measured
"Cc1cc(Nc2ncc(Cl)c(Nc3ccccc3S(=O)(=O)C(C)C)n2)c(OC(C)C)cc1C1=C[C@H](C)N[C@H](C)C1 (racemic) [compound 9, 5-chloro-N2-(4-((cis)-2,6-dimethyl-1,2,3,6-tetrahydropyridin-4-yl)-2-isopropoxy-5-methylphenyl)-N4-(2-(isopropylsulfonyl)phenyl)pyrimidine-2,4-diamine]",8.96,54.9 nM,35.9 nM,–
"Cc1cc(Nc2ncc(Cl)c(Nc3ccccc3S(=O)(=O)C(C)C)n2)c(OC(C)C)cc1C1=C[C@H](C)N(C)[C@H](C)C1 (racemic) [compound 10, 5-chloro-N2-(2-isopropoxy-5-methyl-4-((cis)-1,2,6-trimethyl-1,2,3,6-tetrahydropyridin-4-yl)phenyl)-N4-(2-(isopropylsulfonyl)phenyl)pyrimidine-2,4-diamine]",9.01,54.9 nM,37.5 nM,–
"Cc1cc(Nc2ncc(Cl)c(Nc3ccccc3S(=O)(=O)C(C)C)n2)c(OC(C)C)cc1C1=C[C@H](C2CC2)N[C@H](C2CC2)C1 (racemic) [compound 15, 5-chloro-N2-(4-((cis)-2,6-dicyclopropyl-1,2,3,6-tetrahydropyridin-4-yl)-2-isopropoxy-5-methylphenyl)-N4-(2-(isopropylsulfonyl)phenyl)pyrimidine-2,4-diamine]",8.18,196 nM,121 nM,–
"Cc1cc(Nc2ncc(Cl)c(Nc3ccccc3S(=O)(=O)C(C)C)n2)c(OC(C)C)cc1C1=C[C@H](C2CC2)N(C)[C@H](C2CC2)C1 (racemic) [compound 16, 5-chloro-N2-(4-((cis)-2,6-dicyclopropyl-1-methyl-1,2,3,6-tetrahydropyridin-4-yl)-2-isopropoxy-5-methylphenyl)-N4-(2-(isopropylsulfonyl)phenyl)pyrimidine-2,4-diamine]",8.20,160 nM,97.7 nM,–
"Cc1cc(Nc2ncc(Cl)c(Nc3ccccc3S(=O)(=O)C(C)C)n2)c(OC(C)C)cc1C1=CCN(C2CCOCC2)CC1 [Cpd. No. 5 (mesylate), 5-chloro-N2-(2-isopropoxy-5-methyl-4-(1-(tetrahydro-2H-pyran-4-yl)-1,2,3,6-tetrahydropyridin-4-yl)phenyl)-N4-(2-(isopropylsulfonyl)phenyl)pyrimidine-2,4-diamine]",–,–,–,"half-life ([3]; Sprague-Dawley, rat, in vivo, po, read-out: t1/2 (h) PO (converted)): 3.84 h; AUC0-t (ng · h/mL) PO [3]: 958 ng·h/mL; AUC0-∞ (ng · h/mL) PO [3]: 971 ng·h/mL; Cmax(ng/mL) PO [3]: 127 ng/mL; Tmax (h) PO [3]: 1.0 h"
"Cc1cc(Nc2ncc(Cl)c(Nc3ccccc3S(=O)(=O)C(C)C)n2)c(OC(C)C)cc1C1=CC(C)(C)N(C)C(C)(C)C1 [compound 1, 5-chloro-N2-(2-isopropoxy-5-methyl-4-(1,2,2,6,6-pentamethyl-1,2,3,6-tetrahydropyridin-4-yl)phenyl)-N4-(2-(isopropylsulfonyl)phenyl)pyrimidine-2,4-diamine]",8.74,92 nM,30 nM,–
"Cc1cc(Nc2ncc(Cl)c(Nc3ccccc3S(=O)(=O)C(C)C)n2)c(OC(C)C)cc1C1=CC(C)(C)NC(C)(C)C1 [compound 2, 5-chloro-N2-(2-isopropoxy-5-methyl-4-(2,2,6,6-tetramethyl-1,2,3,6-tetrahydropyridin-4-yl)phenyl)-N4-(2-(isopropylsulfonyl)phenyl)pyrimidine-2,4-diamine]",8.36,132 nM,39 nM,–
"Cc1cc(Nc2ncc(Cl)c(Nc3ccccc3S(=O)(=O)C(C)C)n2)c(OC(C)C)cc1C1=CCN(C2COC2)CC1 [compound 6, 5-chloro-N2-(2-isopropoxy-5-methyl-4-(1-(oxetan-3-yl)-1,2,3,6-tetrahydropyridin-4-yl)phenyl)-N4-(2-(isopropylsulfonyl)phenyl)pyrimidine-2,4-diamine]",–,–,–,tumor growth in the KARPAS 299 xenograph model [4]: inhibit tumor growth
